Like-named read-outs stand apart in the source and are kept apart here.
Biological target: T1, Human BCL-XL protein (N-terminal HiBiT tagged BCL-XL in HT1080 cells) (Homo sapiens, UniProt Q07817)
T1 construct: expressed in transfected cells; host or cells: HT-1080 (ATCC CCL-121), stably transduced with lentivirus pLV-UBC-N-HiBiT-BCL-XL-PGK-puro and selected with puromycin
Test: HiBiT based degradation assay
Type: cell-based
Details: HT1080 cells expressing HiBiT-BCL-XL; for Ymin (24 h) / Ymin (6 h): BCL-XL degradation normalized with DMSO control; for DC50: BCL-XL degradation
Summary of the method: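 HT1080 cells stably transduced by lentivirus with N-terminally HiBiT-tagged human BCL-XL and kept under 1 μg/mL puromycin selection were seeded at three thousand cells per well in 40 μL RPMI 1640 into 384-well plates pre-spotted with compounds across a concentration range. Luminescence was read on a PHERAstar FSX, normalized to DMSO, and fitted with a four-parameter logistic model.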

T1 sequence (Q07817 whole entry): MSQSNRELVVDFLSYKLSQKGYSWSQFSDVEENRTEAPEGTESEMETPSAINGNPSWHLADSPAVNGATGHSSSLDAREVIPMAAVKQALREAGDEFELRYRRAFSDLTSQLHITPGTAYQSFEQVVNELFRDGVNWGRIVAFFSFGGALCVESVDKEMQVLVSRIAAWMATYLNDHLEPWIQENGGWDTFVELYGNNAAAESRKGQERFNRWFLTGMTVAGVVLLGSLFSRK

For `Cc1c(OCCCC[C@H]2CCCN(CC(=O)Nc3ccc4c(C5CCC(=O)NC5=O)nn(C)c4c3)C2)cccc1-c1ccc(N2CCc3cccc(C(=O)Nc4nc5ccccc5s4)c3C2)nc1C(=O)O` (stereo partly drawn) [Compound 202a, 6-[8-(1,3-benzothiazol-2-ylcarbamoyl)-3,4-dihydro-1H-isoquinolin-2-yl]-3-[3-[4-[(3S)-1-[2-[[3-(2,6-dioxo-3-piperidyl)-1-methyl-indazol-6-yl]amino]-2-oxo-ethyl]-3-piperidyl]butoxy]-2-methyl-phenyl]pyridine-2-carboxylic acid], the “Ymin (24 h)” value (24 h) was “A (Ymin < 50%)” and the DC50 (24 h, read-out: EC50 (24 h)) was < 100 nM.

With `Cc1c(OCCCC[C@@H]2CCCN(CC(=O)Nc3ccc4c(C5CCC(=O)NC5=O)nn(C)c4c3)C2)cccc1-c1ccc(N2CCc3cccc(C(=O)Nc4nc5ccccc5s4)c3C2)nc1C(=O)O` (stereo partly drawn) [Compound 202b, 6-[8-(1,3-benzothiazol-2-ylcarbamoyl)-3,4-dihydro-1H-isoquinolin-2-yl]-3-[3-[4-[(3R)-1-[2-[[3-(2,6-dioxo-3-piperidyl)-1-methyl-indazol-6-yl]amino]-2-oxo-ethyl]-3-piperidyl]butoxy]-2-methyl-phenyl]pyridine-2-carboxylic acid] the “Ymin (24 h)” value (24 h) was “A (Ymin < 50%)” and the DC50 (24 h, read-out: EC50 (24 h)) was < 100 nM.

With `Cc1c(OCCCCC2CCN(CC(=O)Nc3ccc4c(C5CCC(=O)NC5=O)nn(C)c4c3)CC2)cccc1-c1ccc(N2CCc3cccc(C(=O)Nc4nc5ccccc5s4)c3C2)nc1C(=O)O` (stereo not drawn) [Compound 203, 6-(8-(benzo[d]thiazol-2-ylcarbamoyl)-3,4-dihydroisoquinolin-2(1H)-yl)-3-(3-(4-(1-(2-((3-(2,6-dioxopiperidin-3-yl)-1-methyl-1H-indazol-6-yl)amino)-2-oxoethyl)piperidin-4-yl)butoxy)-2-methylphenyl)picolinic acid] the “Ymin (6 h)” value (6 h) was “B (50% ≤ Ymin < 70%)”, the “Ymin (24 h)” value (24 h) was “A (Ymin < 50%)” and the DC50 (6 h, read-out: EC50 (6 h)) was < 100 nM. The DC50 (24 h, read-out: EC50 (24 h)) was < 100 nM.

With `Cc1c(O[C@H]2CC[C@H](CCCCN3CCN(c4cccc5c(C6CCC(=O)NC6=O)nn(C)c45)CC3)CC2)cccc1-c1ccc(N2CCc3cccc(C(=O)Nc4nc5ccccc5s4)c3C2)nc1C(=O)O` (stereo partly drawn) [Compound 204a, 6-(8-(benzo[d]thiazol-2-ylcarbamoyl)-3,4-dihydroisoquinolin-2(1H)-yl)-3-(3-(((1s,4r)-4-(4-(4-(3-(2,6-dioxopiperidin-3-yl)-1-methyl-1H-indazol-7-yl)piperazin-1-yl)butyl)cyclohexyl)oxy)-2-methylphenyl)picolinic acid] the “Ymin (24 h)” value (24 h) was “B (50% ≤ Ymin < 70%)” and the DC50 (24 h, read-out: EC50 (24 h)) was < 100 nM.

For `Cc1c(OCCCCCCCCN2CCN(c3ccc4c(C5CCC(=O)NC5=O)nn(C)c4c3)CC2)cccc1-c1ccc(N2CCc3cccc(C(=O)Nc4nc5ccccc5s4)c3C2)nc1C(=O)O` (stereo not drawn) [Compound 205, 6-[8-(1,3-benzothiazol-2-ylcarbamoyl)-3,4-dihydro-1H-isoquinolin-2-yl]-3-[3-[8-[4-[3-(2,6-dioxo-3-piperidyl)-1-methyl-indazol-6-yl]piperazin-1-yl]octoxy]-2-methyl-phenyl]pyridine-2-carboxylic acid], the “Ymin (6 h)” value (6 h) was “B (50% ≤ Ymin < 70%)”, the “Ymin (24 h)” value (24 h) was “A (Ymin < 50%)” and the DC50 (6 h, read-out: EC50 (6 h)) was < 100 nM. The DC50 (24 h, read-out: EC50 (24 h)) was < 100 nM.

For `Cc1c(OCCCCCCCN2CCN(c3cccc4c(C5CCC(=O)NC5=O)nn(C)c34)CC2)cccc1-c1ccc(N2CCc3cccc(C(=O)Nc4nc5ccccc5s4)c3C2)nc1C(=O)O` (stereo not drawn) [Compound 206, 6-[8-(1,3-benzothiazol-2-ylcarbamoyl)-3,4-dihydro-1H-isoquinolin-2-yl]-3-[3-[7-[4-[3-(2,6-dioxo-3-piperidyl)-1-methyl-indazol-7-yl]piperazin-1-yl]heptoxy]-2-methyl-phenyl]pyridine-2-carboxylic acid], the “Ymin (6 h)” value (6 h) was “C (Ymin ≥ 70%)”, the “Ymin (24 h)” value (24 h) was “B (50% ≤ Ymin < 70%)” and the DC50 (6 h, read-out: EC50 (6 h)) was 1000 to 10000 nM. The DC50 (24 h, read-out: EC50 (24 h)) was < 100 nM.

— US20240238423A9, “TETRAHYDROISOQUINOLINE HETEROBIFUNCTIONAL BCL-XL DEGRADERS” (Treeline Biosciences, Inc., priority 2022, published 2024)
